According to the supplement of paper PMC13380429:

Legend:
[1] = tested on: A549-ACE2 infected with SARS-CoV-2; assay: cell count relative to DMSO; higher = less toxic; conditions: 24 h
[2] = tested on: Caco-2; assay: cell viability relative to DMSO; higher = less toxic; conditions: 72 h
[3] = tested on: Calu-3; assay: as above; conditions: 72 h
[4] = tested on: HepG2; assay: as above; conditions: 72 h
[5] = tested on: U2OS; assay: as above; conditions: 72 h
[6] = tested on: Vero E6; assay: as above; conditions: 72 h
[7] = tested on: A549-ACE2 infected with SARS-CoV-2; assay: SARS-CoV-2 infection rate relative to DMSO; higher = more infection; conditions: 24 h
[8] = tested on: A549-ACE2; assay: phospholipidosis EC50; higher = less potent phospholipidosis inducer
[9] = tested on: A549-ACE2; assay: drug-induced phospholipidosis relative to tamoxifen; higher = more phospholipidosis
[10] = tested on: A549-ACE2 infected with SARS-CoV-2; assay: morphology score (similarity to uninfected cells); higher = more like uninfected cells; conditions: 24 h
[11] = tested on: Calu-3; assay: relative viability EC50 (midpoint between 100% and the lowest measured viability); higher = less toxic; conditions: 72 h
[12] = tested on: HepG2; assay: as above; conditions: 72 h
[13] = tested on: U2OS; assay: as above; conditions: 72 h
[14] = tested on: Vero E6; assay: as above; conditions: 72 h
[15] = tested on: Caco-2; assay: drug sensitivity score (DSS) for viability; higher = more toxic; extreme values may be limits of the assay; conditions: 72 h
[16] = tested on: Calu-3; assay: as above; conditions: 72 h
[17] = tested on: HepG2; assay: as above; conditions: 72 h
[18] = tested on: U2OS; assay: as above; conditions: 72 h
[19] = tested on: Vero E6; assay: as above; conditions: 72 h
[20] = tested on: Caco-2; assay: relative viability EC50 (midpoint between 100% and the lowest measured viability); higher = less toxic; conditions: 72 h

CCN(CC)CCO[C@H]1CC[C@@]2(C)C(=CC[C@@H]3[C@@H]2CC[C@]2(C)C(=O)CC[C@@H]32)C1
Conditions	SARS-CoV-2 infection rate [%]	cell count [%]	cell viability [%]	morphology score	phospholipidosis EC50 [µM]
[1], 0.1 µM	–	96	–	–	–
[1], 0.3 µM	–	105	–	–	–
[1], 1 µM	–	114	–	–	–
[1], 3 µM	–	117	–	–	–
[2], 1 nM	–	–	92	–	–
[2], 10 nM	–	–	92.6	–	–
[2], 100 nM	–	–	97.2	–	–
[2], 1000 nM	–	–	88.4	–	–
[2], 10000 nM	–	–	51.2	–	–
[3], 1 nM	–	–	98	–	–
[3], 10 nM	–	–	103	–	–
[3], 100 nM	–	–	107	–	–
[3], 1000 nM	–	–	79.4	–	–
[3], 10000 nM	–	–	18.5	–	–
[4], 1 nM	–	–	101	–	–
[4], 10 nM	–	–	93.8	–	–
[4], 100 nM	–	–	85.3	–	–
[4], 1000 nM	–	–	84.5	–	–
[4], 10000 nM	–	–	33.5	–	–
[5], 1 nM	–	–	99.4	–	–
[5], 10 nM	–	–	98.4	–	–
[5], 100 nM	–	–	99.7	–	–
[5], 1000 nM	–	–	84.9	–	–
[5], 10000 nM	–	–	78.6	–	–
[6], 1 nM	–	–	93.9	–	–
[6], 10 nM	–	–	104	–	–
[6], 100 nM	–	–	89.3	–	–
[6], 1000 nM	–	–	92.3	–	–
[6], 10000 nM	–	–	24.6	–	–
[7], 0.1 µM	108	–	–	–	–
[7], 0.3 µM	93	–	–	–	–
[7], 1 µM	81	–	–	–	–
[7], 3 µM	29	–	–	–	–
[8], 24 h	–	–	–	–	0.935
[8], 48 h	–	–	–	–	1.04
[8], 72 h	–	–	–	–	2.25
[10], 0.1 µM	–	–	–	-0.31	–
[10], 0.3 µM	–	–	–	0.19	–
[10], 1 µM	–	–	–	0.41	–
[10], 3 µM	–	–	–	0.69	–

drug-induced phospholipidosis [%], [9]
Conditions	0.3 µM	0.833333 µM	3.33333 µM	6.66667 µM	10 µM	30 µM
24 h	6.72	34.6	112	114	104	86.8
48 h	7.14	19.8	111	116	106	90
72 h	6.02	13.4	95.4	125	115	–

Conditions	drug sensitivity score	relative viability EC50 [µM]
[11]	–	1.54
[12]	–	1.72
[13]	–	> 10
[14]	–	2.32
[15]	4.4	–
[16]	7.7	–
[17]	5.8	–
[18]	2.2	–
[19]	5.4	–

CN(C)c1ccc(-c2nc3c(N4CCN(CC(=O)Nc5nccs5)CC4)c(Cl)cnc3[nH]2)cc1
Conditions	SARS-CoV-2 infection rate, [7] [%]	cell count, [1] [%]	cell viability, [2] [%]	cell viability, [3] [%]	cell viability, [4] [%]	cell viability, [5] [%]	cell viability, [6] [%]	morphology score, [10]
1 nM	–	–	99.6	102	105	97.1	94.5	–
10 nM	–	–	103	95.7	105	90.9	97.6	–
100 nM	–	–	96.4	91.3	92	98	88.7	–
0.3 µM	94	101	–	–	–	–	–	0.26
1000 nM	–	–	94.7	109	99.9	89.3	95.8	–
3 µM	101	97	–	–	–	–	–	-0.1
10 µM	96	97	–	–	–	–	–	0.16
10000 nM	–	–	98.7	91.5	98.2	67.4	100	–
30 µM	65	83	–	–	–	–	–	0.47

drug-induced phospholipidosis [%], [9]
Conditions	0.3 µM	0.833333 µM	3.33333 µM	6.66667 µM	10 µM	30 µM
24 h	4.66	-0.19	5.5	0.89	5.75	7.19
48 h	6.88	1.34	2.05	1.71	1.43	6.09
72 h	3.52	-6.12	-1.19	0.0519	-2.06	6.76

Conditions	drug sensitivity score	relative viability EC50 [µM]
[11]	–	> 10
[12]	–	> 10
[14]	–	> 10
[15]	0	–
[16]	0	–
[17]	0	–
[18]	2.8	–
[19]	0	–
[20]	–	> 10
